Measurements taken from ChEMBL document CHEMBL5131493, “Synthesis and evaluation of RNase L-binding 2-aminothiophenes as anticancer agents” (Bioorg Med Chem, 2022).

Key:
MCF7 = assay: Antiproliferative activity against human MCF7 cells assessed as cell growth inhibition at 10 uM incubated for 72 hrs by MTT assay relative to control; assay type: functional
JAR [1] = assay: Antiproliferative activity against human JAR cells assessed as cell growth inhibition at 10 uM incubated for 72 hrs by MTT assay relative to control; assay type: functional
JAR [2] = assay: Antiproliferative activity against human JAR cells assessed as cell growth inhibition incubated for 72 hrs by MTT assay; assay type: functional, cell-based
K562 = assay: Antiproliferative activity against human K562 cells assessed as cell growth inhibition incubated for 72 hrs by MTT assay; assay type: functional, cell-based; details: K562, 72 h
A549 [3] = assay: Antiproliferative activity against human A549 cells assessed as cell growth inhibition at 10 uM incubated for 72 hrs by MTT assay relative to control; assay type: functional
A549 [4] = assay: Antiproliferative activity against human A549 cells assessed as cell growth inhibition incubated for 72 hrs by MTT assay; assay type: functional, cell-based; details: A549, 72 h
Homo sapiens = species on record: Homo sapiens; assay: Binding affinity to RNase L (unknown origin) expressed in Escherichia coli BL21 (DE3) assessed as thermal stability by measuring melting temperature at 60 uM incubated for 50 mins by NanoDSF analysis

IC50 (K562) [µM]	IC50 (A549 [4]) [µM]	ΔTm (Homo sapiens) [°C]	Structure (SMILES)	inhibition at 10 µM (MCF7) [%]	inhibition at 10 µM (JAR [1]) [%]	IC50 (JAR [2]) [µM]	inhibition at 10 µM (A549 [3]) [%]
> 100	–	–	CCOC(=O)C1=C(Nc2ccccc2)S/C(=C\c2c[nH]c3ccccc23)C1=O	25	57.6	14.1	19.8
16.2	–	–	CCOC(=O)C1=C(Nc2ccccc2)S/C(=C\c2cccc(C(=O)O)c2)C1=O	< 10	50.6	11.7	< 10
–	–	–	CCOC(=O)C1=C(Nc2ccccc2)S/C(=C\c2cc3cnccc3[nH]2)C1=O	–	< 10	–	–
> 100	–	–	CCOC(=O)C1=C(Nc2cccc(F)c2)S/C(=C\c2ccc[nH]2)C1=O	< 10	45.4	22.6	< 10
–	–	–	CCOC(=O)C1=C(Nc2ccc(OC)cc2)S/C(=C\c2ccc[nH]2)C1=O	< 10	27.6	–	< 10
11.6	47	0.5	CCOC(=O)C1=C(Nc2ccccc2)S/C(=C2\CCN(C(=O)OC(C)(C)C)C2)C1=O	33.8	–	37	–
–	–	–	CCOC(=O)C1=C(Nc2ccccc2)SC(=C2CCN(C)CC2)C1=O	< 10	< 10	–	< 10
–	–	–	CCOC(=O)C1=C(Nc2ccc(C)cc2)S/C(=C\c2ccc[nH]2)C1=O	< 10	< 10	–	20.9
–	–	0.6	CCOC(=O)C1=C(Nc2ccccc2)S/C(=C\c2ccc(OC)c(O)c2)C1=O	–	–	–	11
> 100	–	–	CCOC(=O)C1=C(Nc2cccc(C(F)(F)F)c2)S/C(=C\c2ccc[nH]2)C1=O	22.9	52.9	19.7	22.8
> 100	–	–	CCOC(=O)C1=C(Nc2ccc([N+](=O)[O-])cc2)S/C(=C\c2ccc[nH]2)C1=O	–	54.9	15.6	–
–	–	–	CCOC(=O)C1=C(Nc2ccc(CC)cc2)S/C(=C\c2ccc[nH]2)C1=O	–	< 10	–	17.5
–	–	–	CCOC(=O)C1=C(Nc2ccc(OC)c(OC)c2)S/C(=C\c2ccc[nH]2)C1=O	–	47.9	–	–
–	–	–	CCOC(=O)C1=C(Nc2ccc(C(F)(F)F)cc2)S/C(=C\c2ccc[nH]2)C1=O	19.1	38.5	46.8	30.1
12.7	19.1	–	CCOC(=O)C1=C(Nc2ccccc2)S/C(=C\c2ccc([N+](=O)[O-])c(O)c2)C1=O	41.5	51.2	12.7	–
> 100	–	–	CCOC(=O)C1=C(Nc2ccc(F)cc2)S/C(=C\c2ccc[nH]2)C1=O	< 10	61.5	15.9	< 10
6.6	13.6	–	CCOC(=O)C1=C(Nc2ccccc2)S/C(=C\c2cc3ncccc3[nH]2)C1=O	42.2	74.8	9.6	–
38.7	–	0.5	CCOC(=O)C1=C(Nc2ccccc2)S/C(=C\c2cccc(O)c2)C1=O	24.1	51.9	17	30.6
> 100	–	–	CCOC(=O)C1=C(Nc2ccccc2)S/C(=C\c2cc3cccnc3[nH]2)C1=O	18.2	54.3	14.4	16.7
16.5	> 100	–	CN1CCN(c2cc3c(cc2[N+](=O)[O-])-c2c(cnn2-c2ccc(C(=O)O)cc2)C(C)(C)O3)CC1	–	53.5	9.3	–
31.7	19.2	–	CCOC(=O)C1=C(Nc2ccccc2)S/C(=C\c2cc(OC)c(O)c(OC)c2)C1=O	12.9	57.5	17.4	19.2
